Legend:
[1] = molecular target: T1, Tyrosine-protein kinase JAK3 (Homo sapiens, UniProt P52333); assay: (§1) JAK/TYK2 Assay: 10 mM test compound stock or 1 mM control compound stock (tofocitinib, ruxolitinib or staurosporine) in DMSO was diluted to 0.4 mM in DMSO. A 3-fold series dilution was then performed in DMSO to generate 10 different compound concentrations. The assay was carried out in 384-well white plate. 0.5 uL of 40× compound DMSO solution at different concentrations was mixed with 10 uL 2× enzyme prepared in reaction buffer (20 mM HEPES, 10 mM MgCl2, 0.01% Tween, 1 mM DTT, pH 7.5). 10 uL 2× substrate mixture prepared in reaction buffer was then added to start the reaction. A short spin was done to settle down all solutions to the bottom of the plate. Final concentrations of test compound in the reaction mixture were 10000, 3333, 1111, 370, 123, 41.2, 13.7, 4.57, 1.52 and 0.51 nM. Concentrations of control compound were ten times less. Enzymatic reaction was conducted at 25° C. for 1-2 hours. 10 uL of Kinase Glo Reagents was added to stop the reaction and generate the luminescent signal which was measured using Envision. Luminescence signal was inversely related to kinase activity. […] The mixture without any compound was the positive control. [ATP] [sub] timeJAK1 7.5 nM 2 uM 30 uM (IRS-1) 1 hrJAK2 0.8 nM 2 uM 4 uM (pEY) 1 hrJAK3 1.5 nM 2 uM 4 uM (pEY) 1 hrTYK2 9 nM 2 uM 30 uM (IRS-1) 1 hr
T1 sequence (P52333 whole entry): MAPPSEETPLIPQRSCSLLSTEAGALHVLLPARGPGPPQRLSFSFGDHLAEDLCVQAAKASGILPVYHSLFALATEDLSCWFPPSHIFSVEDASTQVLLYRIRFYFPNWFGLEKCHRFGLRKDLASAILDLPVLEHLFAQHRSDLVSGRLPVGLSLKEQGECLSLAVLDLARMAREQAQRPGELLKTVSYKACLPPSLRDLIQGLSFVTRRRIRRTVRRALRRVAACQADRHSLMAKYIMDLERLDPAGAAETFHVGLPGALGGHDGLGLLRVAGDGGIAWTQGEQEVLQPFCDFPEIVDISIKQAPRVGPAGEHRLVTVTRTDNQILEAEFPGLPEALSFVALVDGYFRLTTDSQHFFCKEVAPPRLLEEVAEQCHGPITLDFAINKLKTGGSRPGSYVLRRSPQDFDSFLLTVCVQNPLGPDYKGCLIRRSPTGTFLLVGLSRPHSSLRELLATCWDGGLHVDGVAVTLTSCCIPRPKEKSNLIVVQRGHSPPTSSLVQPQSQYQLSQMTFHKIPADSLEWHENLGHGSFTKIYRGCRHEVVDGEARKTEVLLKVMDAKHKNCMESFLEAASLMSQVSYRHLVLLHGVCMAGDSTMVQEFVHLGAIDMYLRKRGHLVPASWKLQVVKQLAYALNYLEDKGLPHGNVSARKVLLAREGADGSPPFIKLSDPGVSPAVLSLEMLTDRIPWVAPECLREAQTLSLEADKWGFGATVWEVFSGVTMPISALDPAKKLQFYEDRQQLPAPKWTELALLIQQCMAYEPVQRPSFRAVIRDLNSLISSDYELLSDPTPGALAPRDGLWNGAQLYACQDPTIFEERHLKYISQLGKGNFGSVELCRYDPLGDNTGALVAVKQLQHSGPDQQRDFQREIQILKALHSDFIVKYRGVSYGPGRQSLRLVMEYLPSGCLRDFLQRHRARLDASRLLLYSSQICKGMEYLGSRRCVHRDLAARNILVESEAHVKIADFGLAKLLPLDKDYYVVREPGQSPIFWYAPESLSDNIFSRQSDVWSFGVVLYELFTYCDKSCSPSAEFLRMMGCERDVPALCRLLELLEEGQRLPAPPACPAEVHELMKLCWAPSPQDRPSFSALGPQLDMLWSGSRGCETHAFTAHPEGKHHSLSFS

[2] = molecular target: Tyrosine-protein kinase JAK1 (Homo sapiens, UniProt P23458); assay: as §1
Sequence of Tyrosine-protein kinase JAK1 (P23458 whole entry): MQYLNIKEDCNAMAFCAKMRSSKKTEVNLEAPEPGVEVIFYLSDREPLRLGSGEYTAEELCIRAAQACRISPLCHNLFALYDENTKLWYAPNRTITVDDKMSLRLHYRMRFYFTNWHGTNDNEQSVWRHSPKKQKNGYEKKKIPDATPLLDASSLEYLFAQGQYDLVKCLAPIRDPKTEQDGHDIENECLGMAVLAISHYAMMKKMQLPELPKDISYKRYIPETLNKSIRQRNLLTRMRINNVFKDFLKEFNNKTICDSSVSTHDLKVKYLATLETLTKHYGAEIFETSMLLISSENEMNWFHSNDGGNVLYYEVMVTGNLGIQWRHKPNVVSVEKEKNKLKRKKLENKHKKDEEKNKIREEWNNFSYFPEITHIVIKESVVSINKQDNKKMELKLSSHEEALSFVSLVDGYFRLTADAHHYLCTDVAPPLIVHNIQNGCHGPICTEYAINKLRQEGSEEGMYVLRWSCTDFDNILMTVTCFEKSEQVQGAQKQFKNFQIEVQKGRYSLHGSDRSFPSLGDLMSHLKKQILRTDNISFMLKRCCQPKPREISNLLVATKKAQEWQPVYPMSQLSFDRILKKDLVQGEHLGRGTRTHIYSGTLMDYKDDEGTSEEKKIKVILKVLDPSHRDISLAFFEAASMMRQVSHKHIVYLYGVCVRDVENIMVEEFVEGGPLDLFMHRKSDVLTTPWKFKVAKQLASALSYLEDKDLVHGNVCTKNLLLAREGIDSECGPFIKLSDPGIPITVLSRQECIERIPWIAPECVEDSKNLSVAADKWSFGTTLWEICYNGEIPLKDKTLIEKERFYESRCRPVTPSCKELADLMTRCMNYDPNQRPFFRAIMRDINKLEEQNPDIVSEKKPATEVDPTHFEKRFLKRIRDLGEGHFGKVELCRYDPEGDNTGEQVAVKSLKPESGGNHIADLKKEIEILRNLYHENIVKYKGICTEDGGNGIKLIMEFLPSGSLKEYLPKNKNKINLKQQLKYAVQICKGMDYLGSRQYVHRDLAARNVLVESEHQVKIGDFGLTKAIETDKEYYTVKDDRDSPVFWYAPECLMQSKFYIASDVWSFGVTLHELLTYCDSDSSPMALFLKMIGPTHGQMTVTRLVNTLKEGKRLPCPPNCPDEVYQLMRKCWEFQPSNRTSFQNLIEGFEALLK

[3] = molecular target: Non-receptor tyrosine-protein kinase TYK2 (Homo sapiens, UniProt P29597); assay: as §1
Sequence of Non-receptor tyrosine-protein kinase TYK2 (P29597 whole entry): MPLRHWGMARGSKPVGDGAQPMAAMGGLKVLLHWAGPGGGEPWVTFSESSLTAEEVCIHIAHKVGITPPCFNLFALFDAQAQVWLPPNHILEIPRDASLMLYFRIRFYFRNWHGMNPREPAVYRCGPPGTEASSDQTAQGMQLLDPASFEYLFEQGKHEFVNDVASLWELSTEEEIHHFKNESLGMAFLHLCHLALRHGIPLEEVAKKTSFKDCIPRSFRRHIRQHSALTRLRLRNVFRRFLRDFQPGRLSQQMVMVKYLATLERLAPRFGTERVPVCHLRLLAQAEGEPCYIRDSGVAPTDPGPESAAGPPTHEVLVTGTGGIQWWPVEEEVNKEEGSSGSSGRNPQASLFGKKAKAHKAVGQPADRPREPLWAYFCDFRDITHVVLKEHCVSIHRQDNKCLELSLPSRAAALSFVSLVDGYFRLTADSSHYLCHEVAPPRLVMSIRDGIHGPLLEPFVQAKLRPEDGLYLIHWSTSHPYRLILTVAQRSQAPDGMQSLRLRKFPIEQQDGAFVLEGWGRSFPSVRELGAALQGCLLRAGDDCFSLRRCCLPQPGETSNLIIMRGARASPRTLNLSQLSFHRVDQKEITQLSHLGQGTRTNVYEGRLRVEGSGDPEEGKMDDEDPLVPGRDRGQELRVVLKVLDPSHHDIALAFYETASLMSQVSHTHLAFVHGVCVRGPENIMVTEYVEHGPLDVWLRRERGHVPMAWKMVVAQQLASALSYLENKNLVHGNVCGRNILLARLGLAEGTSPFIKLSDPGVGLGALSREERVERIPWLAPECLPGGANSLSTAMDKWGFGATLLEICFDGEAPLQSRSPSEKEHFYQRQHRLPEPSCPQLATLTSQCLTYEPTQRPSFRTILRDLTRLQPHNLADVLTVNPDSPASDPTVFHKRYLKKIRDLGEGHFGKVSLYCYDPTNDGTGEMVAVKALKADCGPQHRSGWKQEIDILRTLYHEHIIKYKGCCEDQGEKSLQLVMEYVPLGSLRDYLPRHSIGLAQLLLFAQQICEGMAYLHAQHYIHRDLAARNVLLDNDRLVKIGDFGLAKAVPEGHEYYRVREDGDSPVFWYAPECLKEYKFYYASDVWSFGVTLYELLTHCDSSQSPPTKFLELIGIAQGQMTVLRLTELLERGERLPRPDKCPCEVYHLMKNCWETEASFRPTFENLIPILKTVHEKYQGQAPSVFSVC

[4] = molecular target: Tyrosine-protein kinase JAK2 (Homo sapiens, UniProt O60674); assay: as §1
Sequence of Tyrosine-protein kinase JAK2 (O60674 whole entry): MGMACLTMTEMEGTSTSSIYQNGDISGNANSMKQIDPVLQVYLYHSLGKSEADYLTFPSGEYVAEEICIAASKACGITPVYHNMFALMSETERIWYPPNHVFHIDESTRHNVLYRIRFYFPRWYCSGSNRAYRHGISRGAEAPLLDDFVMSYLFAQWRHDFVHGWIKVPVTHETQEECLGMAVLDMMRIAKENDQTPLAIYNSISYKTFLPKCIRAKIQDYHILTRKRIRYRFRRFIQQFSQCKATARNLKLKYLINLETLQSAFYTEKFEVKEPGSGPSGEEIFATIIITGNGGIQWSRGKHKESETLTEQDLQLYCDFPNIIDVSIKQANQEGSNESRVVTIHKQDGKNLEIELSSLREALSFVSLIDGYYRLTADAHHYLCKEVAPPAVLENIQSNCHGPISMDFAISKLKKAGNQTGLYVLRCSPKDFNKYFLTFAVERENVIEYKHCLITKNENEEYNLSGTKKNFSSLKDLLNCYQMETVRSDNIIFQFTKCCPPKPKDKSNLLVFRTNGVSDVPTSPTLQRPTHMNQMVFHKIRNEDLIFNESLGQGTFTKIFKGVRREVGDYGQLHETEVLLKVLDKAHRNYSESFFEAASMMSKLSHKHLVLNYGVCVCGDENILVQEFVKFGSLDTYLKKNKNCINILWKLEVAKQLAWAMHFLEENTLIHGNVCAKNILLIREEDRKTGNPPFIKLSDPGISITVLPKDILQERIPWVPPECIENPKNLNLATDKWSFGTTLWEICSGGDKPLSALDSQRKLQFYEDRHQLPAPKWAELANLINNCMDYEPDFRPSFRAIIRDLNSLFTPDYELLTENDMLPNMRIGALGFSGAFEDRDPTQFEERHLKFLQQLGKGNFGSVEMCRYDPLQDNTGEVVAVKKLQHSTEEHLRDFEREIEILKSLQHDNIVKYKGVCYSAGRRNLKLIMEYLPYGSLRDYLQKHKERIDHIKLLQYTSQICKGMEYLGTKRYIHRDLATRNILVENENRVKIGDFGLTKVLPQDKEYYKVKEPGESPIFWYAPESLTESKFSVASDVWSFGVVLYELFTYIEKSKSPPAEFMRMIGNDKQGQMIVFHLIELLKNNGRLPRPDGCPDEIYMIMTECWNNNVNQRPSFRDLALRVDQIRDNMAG

Measured: IC50

CCC(CC)Cn1ccc2cnc(Nc3cnn(CC(=O)O[C@@H]4C[C@@H](C(=O)OC)N(C)C4)c3)nc21
< 100 nM: all assays above
